In publication PMC4508619 (Scientific Reports, 2015):
“Also recorded” adds a separate entry of the source.

How the values were obtained:
Type in all cases: cell-based
[1] = molecular target: T1, rTRPV1 concatemer 3wt/ya (one Y511A subunit) (Rattus norvegicus, UniProt O35433, Y511A); assay: Whole-cell patch-clamp, HEK293T cells expressing 3wt/ya concatemer; conditions: −40 mV
T1 construct: expressed in transfected cells; host or cells: HEK293T, transient, pCDNA3.1+
Method: (§1) Next, we determined the concentration-response relationship of the various concatemeric constructs, using the whole-cell configuration of the patch clamp at holding voltage of −40 mV.
(§2) Patch clamp experiments were executed using HEK293T cells in the whole cell or outside-out configuration 24 hrs after transfection, as previously described. 30,000 cells were plated on glass coverslips (12 mm) coated with relevant amounts of poly-D-Lysine (PDL; Sigma-Aldrich, MO, USA) and/or Matrigel (BD-biosciences, MA, USA) according to the configuration (see below). […] Recordings were performed using Axopatch 200B patch clamp amplifier (Molecular Devices, CA, USA), and data was collected and analyzed using pClamp 10.2 software (Molecular Devices, CA, USA). […]
(§3) HEK293T cells were plated on coverslips pre-coated with 0.05 mg/ml poly-D-Lysine (PDL; Sigma-Aldrich, MO, USA) and 1 μg/ml Matrigel (BD-biosciences, Bedford, MA, USA) three hrs prior to recordings. […] To avoid potential voltage errors due to receptor overexpression, dose responses were recorded at −40 mV, with the maximal current limited to ~2.5 nA. […] Proton response recordings were performed with 50 μM Amiloride in the bath solution (Sigma-Aldrich, MO, USA) in order to block natively expressed ASICs[43].
(§4) Dose response curves were calculated by SigmaPlot software (San Jose, CA) using the sigmoidal Hill equation as follows: […]

[2] = molecular target: T2, rTRPV1 concatemer 2wt/2ya (two Y511A subunits) (Rattus norvegicus, UniProt O35433, Y511A); assay: Whole-cell patch-clamp, HEK293T cells expressing 2wt/2ya concatemer; conditions: −40 mV
T2 construct: expressed in transfected cells; host or cells: HEK293T, transient, pCDNA3.1+
T2 sequence (O35433 whole entry, stated change not applied): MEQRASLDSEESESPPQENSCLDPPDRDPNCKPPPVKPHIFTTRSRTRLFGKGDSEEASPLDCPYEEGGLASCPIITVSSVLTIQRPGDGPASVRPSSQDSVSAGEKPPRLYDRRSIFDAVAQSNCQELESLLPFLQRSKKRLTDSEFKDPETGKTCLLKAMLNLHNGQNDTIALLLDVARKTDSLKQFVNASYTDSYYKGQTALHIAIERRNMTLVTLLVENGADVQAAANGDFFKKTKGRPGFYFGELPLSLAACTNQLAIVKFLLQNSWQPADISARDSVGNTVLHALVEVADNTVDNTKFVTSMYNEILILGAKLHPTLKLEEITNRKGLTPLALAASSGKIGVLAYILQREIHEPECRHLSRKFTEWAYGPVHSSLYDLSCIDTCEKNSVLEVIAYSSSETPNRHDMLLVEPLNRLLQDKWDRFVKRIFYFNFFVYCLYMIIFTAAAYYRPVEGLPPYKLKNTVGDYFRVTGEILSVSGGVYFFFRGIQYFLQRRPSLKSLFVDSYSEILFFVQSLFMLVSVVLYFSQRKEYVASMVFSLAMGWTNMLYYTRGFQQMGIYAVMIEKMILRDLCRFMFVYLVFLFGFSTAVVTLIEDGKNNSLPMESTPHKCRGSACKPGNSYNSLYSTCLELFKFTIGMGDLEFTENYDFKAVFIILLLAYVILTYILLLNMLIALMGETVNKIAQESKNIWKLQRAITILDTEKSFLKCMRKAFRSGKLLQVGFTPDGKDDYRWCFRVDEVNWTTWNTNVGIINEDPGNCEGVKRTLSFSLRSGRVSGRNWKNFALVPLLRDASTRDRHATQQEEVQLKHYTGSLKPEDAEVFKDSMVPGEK
T2 sequence (O35433 2-838 limits assumed, stated change not applied): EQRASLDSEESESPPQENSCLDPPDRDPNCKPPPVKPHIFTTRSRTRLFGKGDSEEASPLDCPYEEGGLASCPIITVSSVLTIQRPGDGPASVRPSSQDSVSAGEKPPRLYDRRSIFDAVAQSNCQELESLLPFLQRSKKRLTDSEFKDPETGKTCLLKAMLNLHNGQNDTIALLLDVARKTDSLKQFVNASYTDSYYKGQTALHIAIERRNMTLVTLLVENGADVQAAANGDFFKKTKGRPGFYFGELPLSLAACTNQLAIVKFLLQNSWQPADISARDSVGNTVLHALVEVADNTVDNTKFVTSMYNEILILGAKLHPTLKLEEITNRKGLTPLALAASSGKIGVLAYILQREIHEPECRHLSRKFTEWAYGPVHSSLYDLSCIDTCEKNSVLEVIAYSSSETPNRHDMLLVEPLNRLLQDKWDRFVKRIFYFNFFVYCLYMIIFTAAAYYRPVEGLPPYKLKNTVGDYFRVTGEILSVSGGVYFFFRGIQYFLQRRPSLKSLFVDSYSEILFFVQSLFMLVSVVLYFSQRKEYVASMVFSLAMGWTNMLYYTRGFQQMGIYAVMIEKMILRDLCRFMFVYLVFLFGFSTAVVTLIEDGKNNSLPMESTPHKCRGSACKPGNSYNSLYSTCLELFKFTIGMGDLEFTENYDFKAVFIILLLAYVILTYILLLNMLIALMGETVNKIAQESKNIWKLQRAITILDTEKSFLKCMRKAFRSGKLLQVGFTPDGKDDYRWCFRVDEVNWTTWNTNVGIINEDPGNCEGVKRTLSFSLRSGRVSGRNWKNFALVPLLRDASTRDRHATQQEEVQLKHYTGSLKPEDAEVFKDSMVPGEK
T2 sequence (O35433 2-838 Y511A limits assumed): as the sequence (O35433 2-838 limits assumed, stated change not applied) above, with Y510A counted along it
T2 sequence (O35433 2-838 Y511A limits assumed): as the sequence (O35433 2-838 limits assumed, stated change not applied) above, with Y510A counted along it
Method: as §1, §2, §3, §4

[3] = molecular target: T3, rTRPV1 concatemer wt/3ya (three Y511A subunits) (Rattus norvegicus, UniProt O35433, Y511A); assay: Whole-cell patch-clamp, HEK293T cells expressing wt/3ya concatemer
T3 construct: expressed in transfected cells; host or cells: HEK293T, transient, pCDNA3.1+
T3 sequence (O35433 whole entry, stated change not applied): as the sequence (O35433 whole entry, stated change not applied) above
T3 sequence (O35433 2-838 Y511A limits assumed): as the sequence (O35433 2-838 limits assumed, stated change not applied) above, with Y510A counted along it
T3 sequence (O35433 2-838 Y511A limits assumed): as the sequence (O35433 2-838 limits assumed, stated change not applied) above, with Y510A counted along it
T3 sequence (O35433 2-838 Y511A limits assumed): as the sequence (O35433 2-838 limits assumed, stated change not applied) above, with Y510A counted along it
Method: as §1, §2, §3, §4

[4] = molecular target: T4, rTRPV1 concatemer 4ya (Y511A in all subunits) (Rattus norvegicus, UniProt O35433, Y511A); assay: Whole-cell patch-clamp, HEK293T cells expressing 4ya concatemer; conditions: capsaicin 100 μM, whole-cell voltage ramps −80 to +80 mV
T4 construct: expressed in transfected cells; host or cells: HEK293T, transient, pCDNA3.1+
T4 sequence (O35433 whole entry Y511A): as the sequence (O35433 whole entry, stated change not applied) above, with Y511A counted along it
T4 sequence (O35433 2-838 Y511A limits assumed): as the sequence (O35433 2-838 limits assumed, stated change not applied) above, with Y510A counted along it
T4 sequence (O35433 2-838 Y511A limits assumed): as the sequence (O35433 2-838 limits assumed, stated change not applied) above, with Y510A counted along it
T4 sequence (O35433 2-838 Y511A limits assumed): as the sequence (O35433 2-838 limits assumed, stated change not applied) above, with Y510A counted along it
Method: as §2, with “below). Patch electrodes were fabricated from borosilicate glass using the P1000 Micropipette Puller (Sutter Instrument, CA, USA) and fire-polished using the microforge MF-900 (Narishige, Tokyo, Japan).” for “below).”
as §3

rTRPV1 concatemer wt/3ya = molecular target: T5, rTRPV1 concatemer wt/3ya (Rattus norvegicus, UniProt O35433, Y511A); assay: Single-channel outside-out patch recording, Flp-in TREX HEK293 cells, wt/3ya; conditions: for single-channel average amplitude, wt/3ya / unitary conductance, wt/3ya: +60 mV, outside-out
T5 construct: expressed in transfected cells
T5 sequence (O35433 whole entry, stated change not applied): as the sequence (O35433 whole entry, stated change not applied) above
T5 sequence (O35433 2-838 Y511A limits assumed): as the sequence (O35433 2-838 limits assumed, stated change not applied) above, with Y510A counted along it
T5 sequence (O35433 2-838 Y511A limits assumed): as the sequence (O35433 2-838 limits assumed, stated change not applied) above, with Y510A counted along it
T5 sequence (O35433 2-838 Y511A limits assumed): as the sequence (O35433 2-838 limits assumed, stated change not applied) above, with Y510A counted along it
Description: (§5) In order to facilitate recording from a single channel, we used an inducible system, Flp-in TREX, which allows doxycycline-controlled construct expression levels. […] The membrane potential was held at +60 mV considering that the conductance of TRPV1 receptor channels is higher at positive potentials. The pipette contained standard intracellular patch solution, and the patch of membrane was continuously perfused with standard extracellular solution.
(§6) Briefly, cells were co-transfected (performed as described above) with pcDNA5/FRT/TO containing the gene of interest and the Flp-recombinase expression vector pOG44 into the Flp-In host cell line (Invitrogen, MA, USA) at a ratio of 1:9, respectively, as previously described.
(§7) Patch clamp experiments were executed using HEK293T cells in the whole cell or outside-out configuration 24 hrs after transfection, as previously described. 30,000 cells were plated on glass coverslips (12 mm) coated with relevant amounts of poly-D-Lysine (PDL; Sigma-Aldrich, MO, USA) and/or Matrigel (BD-biosciences, MA, USA) according to the configuration (see below). Patch electrodes were fabricated from borosilicate glass using the P1000 Micropipette Puller (Sutter Instrument, CA, USA) and fire-polished using the microforge MF-900 (Narishige, Tokyo, Japan). Electrodes were coated with Sylgard (World Precision Instrument, FL, USA) to reduce the capacity of the recording pipette and to improve noise characteristics. […] Recordings were performed using Axopatch 200B patch clamp amplifier (Molecular Devices, CA, USA), and data was collected and analyzed using pClamp 10.2 software (Molecular Devices, CA, USA). All experiments were carried out at room temperature.
(§8) Single-channel currents were recorded in the outside-out patch configuration of the patch-clamp technique, as previously described. All single-channel recordings were done using the stable cell line Flp-in TREX 293 cells. Cells were plated on coverslips coated with 0.2 mg/ml PDL one hour prior induction. Doxycycline concentration and induction times for obtaining a membrane patches with a single channel were determined for each construct. Generally, 0.3–1 μg/ml doxycycline was used for 2–4 hrs prior to recordings. Patch electrodes were fire-polished to a resistance of 10–15 MΩ. The pipette solution contained (mM): 130 KCl, 4 NaCl, 2 MgSO4, 0.5 CaCl2, 1 EGTA and 10 HEPES adjusted to pH 7.2 with KOH. Single-channel currents were low-pass filtered at 5 kHz and digitized at 50 kHz. Occasional large brief noise spikes were visually identified and removed from the current traces. Single-channel recordings were analyzed with the pCLAMP 10.2 program Clampfit (Axon Instruments, USA), as previously described. For each concatemeric construct, 150–2000 events were collected from each of 3–5 separate patches. To determine channel amplitude, all-point amplitude histograms were created using data digitally filtered at 2 kHz. To determine channel open probability, traces filtered at 5 kHz were idealized using the half-amplitude threshold crossing method (pCLAMP 10.2)[38].

rTRPV1 (wt) [5] = molecular target: T6, rTRPV1 (wt) (Rattus norvegicus, UniProt O35433); assay: Two electrode voltage clamp, Xenopus laevis oocytes expressing wt rTRPV1; conditions: capsaicin, TEVC
T6 sequence (O35433 whole entry): as the sequence (O35433 whole entry, stated change not applied) above
Method: (§9) The current-voltage relationship was determined using whole-cell patch-clamp recordings.
(§10) Stage V–VI Xenopus laevis oocytes were prepared as previously described. Oocytes were injected up to 24 hr after isolation with a total of 5 ng cRNA, and assayed 5–10 days later. Two electrode voltage-clamp recordings were carried out at RT using GeneClamp 500 connected to digidata1322A and pCLAMP 8.2 (Molecular Devices, CA, USA). Electrodes (Sutter Instruments, CA, USA) were filled with 3 M KCl and had resistance of 0.5–1 MΩ. Oocytes were continuously perfused with normal frog ringer (NFR) solution without calcium containing (mM): 115 NaCl, 2.5 KCl, 2 […], and 10 HEPES, pH 7.4 with NaOH.

[6] = molecular target: T7, concatemeric rTRPV1 (4wt) (Rattus norvegicus, UniProt O35433); assay: Two electrode voltage clamp, Xenopus laevis oocytes expressing 4wt concatemer; conditions: capsaicin, TEVC
T7 sequence (O35433 whole entry): as the sequence (O35433 whole entry, stated change not applied) above
T7 sequence (O35433 2-838 limits assumed): as the sequence (O35433 2-838 limits assumed, stated change not applied) above
T7 sequence (O35433 2-838 limits assumed): as the sequence (O35433 2-838 limits assumed, stated change not applied) above
T7 sequence (O35433 2-838 limits assumed): as the sequence (O35433 2-838 limits assumed, stated change not applied) above
Method: as §9, §10

[7] = molecular target: T8, rTRPV1 concatemer 4qa (E600Q/E648A in all subunits) (Rattus norvegicus, UniProt O35433, E600Q/E648A); assay: Whole-cell patch-clamp, HEK293T cells expressing 4qa concatemer; conditions: capsaicin 1 μM, −40 mV
T8 construct: expressed in transfected cells; host or cells: HEK293T, transient, pCDNA3.1+
T8 sequence (O35433 whole entry E600Q/E648A): as the sequence (O35433 whole entry, stated change not applied) above, with E600Q, E648A counted along it
T8 sequence (O35433 2-838 E600Q/E648A limits assumed): as the sequence (O35433 2-838 limits assumed, stated change not applied) above, with E599Q, E647A counted along it
T8 sequence (O35433 2-838 E600Q/E648A limits assumed): as the sequence (O35433 2-838 limits assumed, stated change not applied) above, with E599Q, E647A counted along it
T8 sequence (O35433 2-838 E600Q/E648A limits assumed): as the sequence (O35433 2-838 limits assumed, stated change not applied) above, with E599Q, E647A counted along it
Method: as §7, with “Japan).” for “Japan). Electrodes were coated with Sylgard (World Precision Instrument, FL, USA) to reduce the capacity of the recording pipette and to improve noise characteristics.”, “All experiments were carried out at room temperature.” left out
as §3

rTRPV1 (wt) [8] = molecular target: T6, rTRPV1 (wt); assay: Whole-cell patch-clamp, HEK293T cells transiently expressing wt rTRPV1; set-up: expressed in transfected cells; host or cells: HEK293T, transient, pCDNA3.1+
Method: as §9
as §7, with “Japan).” for “Japan). Electrodes were coated with Sylgard (World Precision Instrument, FL, USA) to reduce the capacity of the recording pipette and to improve noise characteristics.”, “All experiments were carried out at room temperature.” left out
as §3, with “ASICs[43]. […]” for “ASICs[43].”

[9] = molecular target: T7, concatemeric rTRPV1 (4wt); assay: Whole-cell patch-clamp, HEK293T cells expressing tetrameric concatemer 4wt; set-up: expressed in transfected cells; host or cells: HEK293T, transient, pCDNA3.1+
Method: as §9, §1, §2
as §3, with “ASICs[43]. […]” for “ASICs[43].”

[10] = molecular target: T7, concatemeric rTRPV1 (4wt); assay: Single-channel outside-out patch recording, Flp-in TREX HEK293 cells, 4wt; set-up: expressed in transfected cells; host or cells: HEK293T, transient, pCDNA3.1+
Description: as §5, §6, §7
as §8, with “To determine channel amplitude, all-point amplitude histograms were created using data digitally filtered at 2 kHz. To determine channel open probability, traces filtered at 5 kHz were idealized using the half-amplitude threshold crossing method (pCLAMP 10.2)[38].” left out

[11] = 2 μM capsaicin, +60 mV, outside-out

T1 sequence (O35433 whole entry, stated change not applied): as the sequence (O35433 whole entry, stated change not applied) above
T1 sequence (O35433 2-838 limits assumed, stated change not applied): as the sequence (O35433 2-838 limits assumed, stated change not applied) above
T1 sequence (O35433 2-838 limits assumed, stated change not applied): as above
T1 sequence (O35433 2-838 Y511A limits assumed): as the sequence (O35433 2-838 limits assumed, stated change not applied) above, with Y510A counted along it

Hill coefficient nH for capsaicin, 3wt/ya [1]: 1.1
Hill coefficient nH for capsaicin, 2wt/2ya [2]: 1.2
Hill coefficient nH for capsaicin, wt/3ya ([3]; whole-cell, −40 mV): 1.1
single-channel average amplitude, wt/3ya (rTRPV1 concatemer wt/3ya; 2 μM capsaicin): 4.8 ± 0.5 pA
unitary conductance, wt/3ya (rTRPV1 concatemer wt/3ya; 2 μM capsaicin): 80 ± 5 pS
single-channel average amplitude, wt/3ya (rTRPV1 concatemer wt/3ya; 30 μM capsaicin): 4.9 ± 0.4 pA
unitary conductance, wt/3ya (rTRPV1 concatemer wt/3ya; 30 μM capsaicin): 82 ± 3 pS
capsaicin concentration required to achieve full TRPV1 activation, wt/3ya (rTRPV1 concatemer wt/3ya; single functional VBS): 30 µM
average current amplitude ICAP+80mV (±SEM), oocytes, wt (rTRPV1 (wt) [5]): 5.6 ± 0.3 μA
average current amplitude ICAP+80mV (±SEM), oocytes, 4wt [6]: 4.7 ± 0.2 μA
capsaicin response, 4qa vs 4wt [7]: unaffected
average current amplitude ICAP+80mV (±SEM), HEK293T, wt (rTRPV1 (wt) [8]; capsaicin 1 μM, +80 mV): 8.3 ± 1.2 nA
Hill coefficient nH for capsaicin, wt (rTRPV1 (wt) [8]; whole-cell, −40 mV): 1.3
average current amplitude ICAP+80mV (±SEM), HEK293T, 4wt ([9]; capsaicin 1 μM, +80 mV): 7.8 ± 1.8 nA
Hill coefficient nH for capsaicin, 4wt ([9]; whole-cell, −40 mV): 1.4
capsaicin concentration required to achieve full TRPV1 activation, 4wt [10]: 2 µM
open probability, 4wt [10, 11]: 0.89 ± 0.10
single-channel average amplitude, 4wt [10, 11]: 5.2 ± 0.4 pA
unitary conductance, 4wt [10, 11]: 86 ± 3 pS
SMILES: COc1cc(CNC(=O)CCCC/C=C/C(C)C)ccc1O [capsaicin]
response of wt/3ya construct to capsaicin ([3]; capsaicin 100 μM, whole-cell voltage ramps −80 to +80 mV): robust outward-rectifying current; also recorded: robust capsaicin response
response of 4ya construct to capsaicin [4]: insensitive; also recorded: nearly eliminated
